# In paper PMC9181188 (International Journal of Molecular Sciences, 2022):
# Read-outs that look alike come from different tables or passages of the source.
# Columns and labels:
# [1] = tested on: S. epidermidis ATCC 12228; assay: MIC, twofold microdilution, standard strain; type: cell-based; conditions: Staphylococcus epidermidis, ATCC12228; 18 h of treatment; read-out: MIC S. epidermidis ATCC 12228
# [2] = tested on: S. epidermidis KR 4243 829/19; assay: MIC, clinical S. epidermidis strain; type: cell-based; conditions: Staphylococcus epidermidis, KR4243829/19, quinolone-susceptible, 18 h of treatment
# [3] = tested on: S. epidermidis T 5501 851/19; assay: MIC, clinical S. epidermidis strain; type: cell-based; conditions: Staphylococcus epidermidis, T5501851/19, read-out: MIC T 5501 851/19, quinolone-susceptible, 18 h of treatment
# [4] = tested on: S. epidermidis KR 4358/2 840/19; assay: MIC, clinical S. epidermidis strain; type: cell-based; conditions: Staphylococcus epidermidis, KR4358/2840/19; clinical S. epidermidis, quinolone-susceptible, 18 h of treatment; read-out: MIC KR 4358/2 840/19
# [5] = tested on: HaCaT cells; assay: MTT assay, HaCaT normal cells; type: cell-based; conditions: human immortal keratinocyte cell line, 72 h, mean ± SD
# [6] = tested on: standard staphylococci (S. aureus, S. epidermidis); assay: MIC, standard Gram-positive strains as a group; type: cell-based; conditions: Staphylococcus aureus; range over standard Gram-positive strains; read-out: MIC against standard staphylococci
# [7] = tested on: S. aureus ATCC 25923; assay: MIC, twofold microdilution, standard strain; type: cell-based; conditions: Staphylococcus aureus, ATCC25923; 18 h of treatment; read-out: MIC S. aureus ATCC 25923
# [8] = tested on: SW480, SW620, and PC3 cancer cell lines; assay: MTT assay, cancer cell lines as a group; type: cell-based, human; conditions: Homo sapiens, 72 h, all three cancer cell lines (SW480, SW620, PC3), read-out: IC50 against all tested cancer cell lines
# [9] = tested on: E. coli ATCC 25922; assay: MIC, twofold microdilution, standard strain; type: cell-based, Escherichia coli; conditions: Escherichia coli, read-out: MIC E. coli ATCC 25922
# [10] = tested on: S. epidermidis ATCC 35984; assay: MIC, twofold microdilution, standard strain; type: cell-based; conditions: Staphylococcus epidermidis, ATCC35984; 18 h of treatment; read-out: MIC S. epidermidis ATCC 35984
# [11] = tested on: S. epidermidis T 5253 845/19; assay: MIC, clinical S. epidermidis strain; type: cell-based; conditions: Staphylococcus epidermidis, T5253845/19, quinolone-resistant, 18 h of treatment
# [12] = tested on: S. aureus ATCC 6538; assay: MIC, twofold microdilution, standard strain; type: cell-based; conditions: Staphylococcus aureus, ATCC6538; 18 h of treatment; read-out: MIC S. aureus ATCC 6538
# [13] = tested on: S. epidermidis T 5399 848/19; assay: MIC, clinical S. epidermidis strain; type: cell-based; conditions: Staphylococcus epidermidis, T5399848/19, quinolone-susceptible, 18 h of treatment
# [14] = tested on: SW620 cells; assay: MTT assay, SW620; type: cell-based, human; conditions: for IC50: Homo sapiens, SW-620, 72 h, human metastatic colon cancer, 72 h, MTT, mean ± SD; for SI SW620: SI = IC50 for normal cell line (HaCaT)/IC50 cancer cell line
# [15] = tested on: SW480 cells; assay: MTT assay, SW480; type: cell-based, human; conditions: for IC50: Homo sapiens, SW480, 72 h, human primary colon cancer, 72 h, MTT, mean ± SD; for SI SW480: SI = IC50 for normal cell line (HaCaT)/IC50 cancer cell line
# [16] = tested on: PC3 cells; assay: MTT assay, PC3; type: cell-based, human; conditions: for IC50: Homo sapiens, PC-3, 72 h, human metastatic prostate cancer, 72 h, MTT, mean ± SD; for SI PC3: SI = IC50 for normal cell line (HaCaT)/IC50 cancer cell line
# [17] = tested on: M. tuberculosis Spec. 192 (Sensitive to Tuberculostatics); assay: MABA (microplate Alamar blue assay) MIC; type: cell-based; conditions: Mycobacterium tuberculosis, 336 h, read-out: MIC M. tuberculosis Spec. 192 (Sensitive to Tuberculostatics)
# [18] = tested on: M. tuberculosis H37Rv; assay: MABA (microplate Alamar blue assay) MIC; type: cell-based; conditions: Mycobacterium tuberculosis, 336 h, read-out: MIC M. tuberculosis H37Rv
# [19] = tested on: P. aeruginosa ATCC 27853; assay: MIC, twofold microdilution, standard strain; type: cell-based; conditions: Pseudomonas aeruginosa, ATCC27853; 18 h of treatment; read-out: MIC P. aeruginosa ATCC 27853
# [20] = tested on: S. aureus ATCC 29213; assay: MIC, twofold microdilution, standard strain; type: cell-based; conditions: Staphylococcus aureus, ATCC29213; 18 h of treatment; read-out: MIC S. aureus ATCC 29213
# [21] = tested on: S. epidermidis KR 4313 834/19; assay: MIC, clinical S. epidermidis strain; type: cell-based; conditions: Staphylococcus epidermidis, KR4313834/19, quinolone-susceptible, 18 h of treatment
# [22] = tested on: S. aureus NCTC 4163; assay: MIC, twofold microdilution, standard strain; type: cell-based; conditions: Staphylococcus aureus, NCTC4163; 18 h of treatment; read-out: MIC S. aureus NCTC 4163
# [23] = tested on: S. epidermidis KR 4047 825/19; assay: MIC, clinical S. epidermidis strain; type: cell-based; conditions: Staphylococcus epidermidis, KR4047825/19, quinolone-resistant, 18 h of treatment
# [24] = tested on: M. tuberculosis strains; assay: MABA MIC, mycobacterial strains as a group; type: cell-based; conditions: Mycobacterium tuberculosis; summary over strains; read-out: MIC antimycobacterial (strain not specified)
Structure (SMILES),MIC [1],MIC [2],MIC [3],MIC [4],IC50 [5],MIC [6],MIC [7],MIC [10],MIC [11],MIC [12],MIC [13],IC50 [14],SI SW620 [14],IC50 [15],SI SW480 [15],IC50 [16],SI PC3 [16],MIC [19],MIC [20],MIC [21],other results
"CCCCCCCC/C=C/CCCCCCCC(=O)N1CCCC2CN(c3c(F)cc4c(=O)c(C(=O)O)cn(C5CC5)c4c3OC)CC21 (stereo not shown) [Compound 5m, 1-Cyclopropyl-6-fluoro-8-methoxy-7-{1-(E)-octadec-9-enoyl-octahydro-pyrrolo[3,4-b]pyridin-6-yl}-4-oxo-1,4-dihydro-quinoline-3-carboxylic acid]",> 512 µg/mL,> 512 µg/mL,512 µg/mL,512 µg/mL,91.6 ± 4.6 µM,> 32 µg/mL,> 512 µg/mL,> 512 µg/mL,512 µg/mL,> 512 µg/mL,512 µg/mL,8.7 ± 1.2 µM,10.5,6.7 ± 0.6 µM,13.7,5.3 ± 1.3 µM,17.3,128 µg/mL,> 512 µg/mL,256 µg/mL,"IC50 [8]: 5 to 10 µM; MIC ([9]; ATCC25922, 18 h of treatment): > 512 µg/mL; MIC [17]: 256 µg/mL; MIC ([18]; 2 weeks of treatment): 512 µg/mL; MIC [22]: > 512 µg/mL; MIC [23]: > 512 µg/mL"
"CC/C=C\C/C=C\C/C=C\CCCCCCCC(=O)N1CCCC2CN(c3c(F)cc4c(=O)c(C(=O)O)cn(C5CC5)c4c3OC)CC21 (stereo not shown) [Compound 6m, 1-Cyclopropyl-6-fluoro-8-methoxy-7-{1-(9Z,12Z,15Z)-octadeca-9,12,15-trienoyl-octahydro-pyrrolo[3,4-b]pyridin-6-yl}-4-oxo-1,4-dihydro-quinoline-3-carboxylic acid]",32 µg/mL,64 µg/mL,128 µg/mL,64 µg/mL,96.6 ± 5.5 µM,8 to 32 µg/mL,32 µg/mL,32 µg/mL,256 µg/mL,16 µg/mL,32 µg/mL,15.6 ± 2.6 µM,6.2,16.7 ± 3.1 µM,5.8,14.4 ± 2.4 µM,6.7,> 512 µg/mL,16 µg/mL,64 µg/mL,"MIC ([9]; ATCC25922, 18 h): 256 µg/mL; MIC [24]: ≥ 128 µg/mL; MIC ([17]; 2 weeks of treatment): 128 µg/mL; MIC [18]: 256 µg/mL; MIC [22]: 16 µg/mL; MIC [23]: 256 µg/mL"
